Columns and labels:
RAW264.7 [1] = assay: Antiinflammatory activity in mouse RAW264.7 cells assessed as reduction in LPS-induced NO production at 10 uM preincubated for 2 hrs followed by LPS stimulation and measured after 24 hrs by Griess reagent-based assay relative to control; type: functional; parameters: scale not given: the % may be the effect or the level left; settings: time 26 hrs
RAW264.7 [2] = assay: Antiinflammatory activity in mouse RAW264.7 cells assessed as reduction in LPS-induced NO production at 25 to 50 uM preincubated for 2 hrs followed by LPS stimulation and measured after 24 hrs by Griess reagent-based assay relative to control; type: functional; parameters: scale not given: the % may be the effect or the level left; settings: dose 25-50 µM, time 26 hrs
RAW264.7 [3] = assay: Antiinflammatory activity in mouse RAW264.7 cells assessed as reduction in LPS-induced NO production preincubated for 2 hrs followed by LPS stimulation and measured after 24 hrs by Griess reagent-based assay; type: functional, cell-based; settings: dose 5-50 µM, time 26.0 hrs

## C[C@@H]1C[C@H]2[C@@H]3CCC4=CC(=O)C=C[C@]4(C)[C@@]3(F)[C@@H](O)C[C@]2(C)[C@@]1(O)C(=O)CO [DEXAMETHASONE]
RAW264.7 [1]
  Activity: 50%

## COc1cccc2ccc(-c3ccc(O)c4c(OC)cccc34)c(O)c12
RAW264.7 [2]
  Activity: 50%
RAW264.7 [3]
  Activity: Dose-Dependent Effect

## COc1cccc2ccc(-c3ccc4cccc(OC)c4c3O)c(O)c12
RAW264.7 [2]
  Activity: 50%
RAW264.7 [3]
  Activity: Dose-Dependent Effect

## COc1cccc2ccc(-c3cc(-c4ccc(O)c5c(OC)cccc45)c4cccc(OC)c4c3O)c(O)c12
RAW264.7 [2]
  Activity: 50%
RAW264.7 [3]
  Activity: Dose-Dependent Effect

— ChEMBL document CHEMBL5360674, “Discovery of Naphthol Tetramers from Endolichenic Fungus Daldinia childiae 047219 Based on MS/MS Molecular Networking” (2023)
